Reference: patent US20210346329A1, “TCA CYCLE INTERMEDIATES AND METHODS OF USE THEREOF” (IMBRIA PHARMACEUTICALS, INC., priority 2018, published 2021)

Legend:
[1] = Tissue distribution of radioactivity (whole-body sections, phosphor imaging, image densitometry); conditions: IV 10 mg/kg
Experimental: (§1) The plasma-time course, routes and rates of excretion, and tissue distribution of radioactivity following a single oral dose of ^14C-labeled citrate or single oral dose of ^14C-labeled succinate were analyzed in rats.
(§2) CD® rats were obtained from Charles River Laboratories. Animals were 9-11 weeks in age at beginning of study.
(§3) Animals given intravenous ^14C-succinate were not kept in a fasting state. ^14C-succinate was administered by tail vein injection.
At 0.5, 1, 2, 4, 8, and 24 hours post-dose, after terminal blood collections, euthanized animals were frozen in a hexane/dry ice bath and embedded in a 5% carboxymethylcellulose matrix according to MPI Research SOP IMG-23.
Sections of approximately 30 μm thickness were taken in the sagittal plane. Appropriate sections selected at various levels of interest in the block were collected to encompass the following tissues, organs, and biological fluids, where possible: adrenal gland, bladder and contents (urine), blood (cardiac), bone, bone marrow, brain, epididymis, eye, fat (brown), fat (white), heart, kidney, large intestine/cecum and contents, liver, lung, muscle, pancreas, prostate/uterus, salivary glands, skin, small intestine and contents, spleen, stomach and contents, testes/ovaries, thymus, thyroid, and mesenteric lymph nodes.
Quantification, relative to the calibration standards, was performed by image densitometry using MCID™ image analysis software according to MPI Research SOP IMG-24. A standard curve was constructed from the integrated response (MDC/mm^2) and the nominal concentrations of the [^14C]calibration standards. The concentrations of radioactivity were expressed as μCi/g and converted to μg or ng equivalents of [^14C]Test Article per gram sample (ng-eq/g or μg-eq/g) using the specific activity of administered [^14C]Test Article dose formulation. A lower limit of quantification (LLOQ) was applied to the data. The LLOQ was determined using the radioactive concentration of the lowest calibration standard used to generate a calibration curve divided by the specific activity of the dose formulation (μCi/mg). Artifacts, such as those produced by dislodged contents of the alimentary canal, were excluded from analysis during image analysis.

[2] = Plasma concentrations of radioactive material; type: in vivo, CD® rats; conditions: IV 10 mg/kg
Experimental: as §1
Formulations were prepared on the day prior to dosing.
as §2, §3
Blood and plasma were collected by cardiac puncture for terminal collection at 0.5, 1, 2, 4, 8, and 24 hours post-dose. Blood was stored on an ice block or wet ice until centrifugation to obtain plasma. Triplicate aliquots were weighed, mixed with scintillation cocktail, and counted by LSC.
Samples were analyzed for radioactivity by liquid scintillation counting (LSC) for at least 5 minutes or 100,000 cumulative counts. Samples were analyzed in triplicate.

## O=C(O)CCC(=O)O [^14C-succinate]
[1]; Bone marrow, 0.5 Hour
  Radioactivity in tissue: 1314 ng Equivalents test article/g
[1]; Bone marrow, 1 Hour
  Radioactivity in tissue: 1750 ng Equivalents test article/g
[1]; Bone marrow, 2 Hours
  Radioactivity in tissue: 1398 ng Equivalents test article/g
[1]; Bone marrow, 4 Hours
  Radioactivity in tissue: 1419 ng Equivalents test article/g
[1]; Bone marrow, 8 Hours
  Radioactivity in tissue: 1019 ng Equivalents test article/g
[1]; Bone marrow, 24 Hours
  Radioactivity in tissue: 769 ng Equivalents test article/g
[1]; Bone, 0.5 Hour
  Radioactivity in tissue: 3128 ng Equivalents test article/g
[1]; Bone, 1 Hour
  Radioactivity in tissue: 3200 ng Equivalents test article/g
[1]; Bone, 2 Hours
  Radioactivity in tissue: 1989 ng Equivalents test article/g
[1]; Bone, 4 Hours
  Radioactivity in tissue: 2330 ng Equivalents test article/g
[1]; Bone, 8 Hours
  Radioactivity in tissue: 2042 ng Equivalents test article/g
[1]; Bone, 24 Hours
  Radioactivity in tissue: 1322 ng Equivalents test article/g
[1]; Cecum contents, 0.5 Hour
  Radioactivity in tissue: 540 ng Equivalents test article/g
[1]; Cecum contents, 1 Hour
  Radioactivity in tissue: 882 ng Equivalents test article/g
[1]; Cecum contents, 2 Hours
  Radioactivity in tissue: 757 ng Equivalents test article/g
[1]; Cecum contents, 4 Hours
  Radioactivity in tissue: 750 ng Equivalents test article/g
[1]; Cecum contents, 8 Hours
  Radioactivity in tissue: 806 ng Equivalents test article/g
[1]; Cecum contents, 24 Hours
  Radioactivity in tissue: BLQ (BLQ: Below limit of quantitation (<320 ng equivalents test article/g).)
[1]; Cecum, 0.5 Hour
  Radioactivity in tissue: BLQ (BLQ: Below limit of quantitation (<320 ng equivalents test article/g).)
[1]; Cecum, 1 Hour
  Radioactivity in tissue: BLQ (BLQ: Below limit of quantitation (<320 ng equivalents test article/g).)
[1]; Cecum, 2 Hours
  Radioactivity in tissue: BLQ (BLQ: Below limit of quantitation (<320 ng equivalents test article/g).)
[1]; Cecum, 4 Hours
  Radioactivity in tissue: BLQ (BLQ: Below limit of quantitation (<320 ng equivalents test article/g).)
[1]; Cecum, 8 Hours
  Radioactivity in tissue: BLQ (BLQ: Below limit of quantitation (<320 ng equivalents test article/g).)
[1]; Cecum, 24 Hours
  Radioactivity in tissue: BLQ (BLQ: Below limit of quantitation (<320 ng equivalents test article/g).)
[1]; Cerebellum, 0.5 Hour
  Radioactivity in tissue: 709 ng Equivalents test article/g
[1]; Cerebellum, 1 Hour
  Radioactivity in tissue: 847 ng Equivalents test article/g
[1]; Cerebellum, 2 Hours
  Radioactivity in tissue: 529 ng Equivalents test article/g
[1]; Cerebellum, 4 Hours
  Radioactivity in tissue: 503 ng Equivalents test article/g
[1]; Cerebellum, 8 Hours
  Radioactivity in tissue: BLQ (BLQ: Below limit of quantitation (<320 ng equivalents test article/g).)
[1]; Cerebellum, 24 Hours
  Radioactivity in tissue: BLQ (BLQ: Below limit of quantitation (<320 ng equivalents test article/g).)
[1]; Cerebrum, 0.5 Hour
  Radioactivity in tissue: 596 ng Equivalents test article/g
[1]; Cerebrum, 1 Hour
  Radioactivity in tissue: 853 ng Equivalents test article/g
[1]; Cerebrum, 2 Hours
  Radioactivity in tissue: 477 ng Equivalents test article/g
[1]; Cerebrum, 4 Hours
  Radioactivity in tissue: 543 ng Equivalents test article/g
[1]; Cerebrum, 8 Hours
  Radioactivity in tissue: 348 ng Equivalents test article/g
[1]; Cerebrum, 24 Hours
  Radioactivity in tissue: BLQ (BLQ: Below limit of quantitation (<320 ng equivalents test article/g).)
[1]; Epididymis, 0.5 Hour
  Radioactivity in tissue: 699 ng Equivalents test article/g
[1]; Epididymis, 1 Hour
  Radioactivity in tissue: 785 ng Equivalents test article/g
[1]; Epididymis, 2 Hours
  Radioactivity in tissue: 442 ng Equivalents test article/g
[1]; Epididymis, 4 Hours
  Radioactivity in tissue: BLQ (BLQ: Below limit of quantitation (<320 ng equivalents test article/g).)
[1]; Epididymis, 8 Hours
  Radioactivity in tissue: BLQ (BLQ: Below limit of quantitation (<320 ng equivalents test article/g).)
[1]; Epididymis, 24 Hours
  Radioactivity in tissue: BLQ (BLQ: Below limit of quantitation (<320 ng equivalents test article/g).)
[1]; Eye, 0.5 Hour
  Radioactivity in tissue: 569 ng Equivalents test article/g
[1]; Eye, 1 Hour
  Radioactivity in tissue: 584 ng Equivalents test article/g
[1]; Eye, 2 Hours
  Radioactivity in tissue: 371 ng Equivalents test article/g
[1]; Eye, 4 Hours
  Radioactivity in tissue: 413 ng Equivalents test article/g
[1]; Eye, 8 Hours
  Radioactivity in tissue: BLQ (BLQ: Below limit of quantitation (<320 ng equivalents test article/g).)
[1]; Eye, 24 Hours
  Radioactivity in tissue: BLQ (BLQ: Below limit of quantitation (<320 ng equivalents test article/g).)
[1]; Fat (brown), 0.5 Hour
  Radioactivity in tissue: 996 ng Equivalents test article/g
[1]; Fat (brown), 1 Hour
  Radioactivity in tissue: BLQ (BLQ: Below limit of quantitation (<320 ng equivalents test article/g).)
[1]; Fat (brown), 2 Hours
  Radioactivity in tissue: BLQ (BLQ: Below limit of quantitation (<320 ng equivalents test article/g).)
[1]; Fat (brown), 4 Hours
  Radioactivity in tissue: BLQ (BLQ: Below limit of quantitation (<320 ng equivalents test article/g).)
[1]; Fat (brown), 8 Hours
  Radioactivity in tissue: BLQ (BLQ: Below limit of quantitation (<320 ng equivalents test article/g).)
[1]; Fat (brown), 24 Hours
  Radioactivity in tissue: BLQ (BLQ: Below limit of quantitation (<320 ng equivalents test article/g).)
[1]; Fat (white), 0.5 Hour
  Radioactivity in tissue: BLQ (BLQ: Below limit of quantitation (<320 ng equivalents test article/g).)
[1]; Fat (white), 1 Hour
  Radioactivity in tissue: BLQ (BLQ: Below limit of quantitation (<320 ng equivalents test article/g).)
[1]; Fat (white), 2 Hours
  Radioactivity in tissue: BLQ (BLQ: Below limit of quantitation (<320 ng equivalents test article/g).)
[1]; Fat (white), 4 Hours
  Radioactivity in tissue: 348 ng Equivalents test article/g
[1]; Fat (white), 8 Hours
  Radioactivity in tissue: BLQ (BLQ: Below limit of quantitation (<320 ng equivalents test article/g).)
[1]; Fat (white), 24 Hours
  Radioactivity in tissue: BLQ (BLQ: Below limit of quantitation (<320 ng equivalents test article/g).)
[1]; Harderian gland, 0.5 Hour
  Radioactivity in tissue: BLQ (BLQ: Below limit of quantitation (<320 ng equivalents test article/g).)
[1]; Harderian gland, 1 Hour
  Radioactivity in tissue: 1983 ng Equivalents test article/g
[1]; Harderian gland, 2 Hours
  Radioactivity in tissue: 1478 ng Equivalents test article/g
[1]; Harderian gland, 4 Hours
  Radioactivity in tissue: BLQ (BLQ: Below limit of quantitation (<320 ng equivalents test article/g).)
[1]; Harderian gland, 8 Hours
  Radioactivity in tissue: BLQ (BLQ: Below limit of quantitation (<320 ng equivalents test article/g).)
[1]; Harderian gland, 24 Hours
  Radioactivity in tissue: BLQ (BLQ: Below limit of quantitation (<320 ng equivalents test article/g).)
[1]; Kidney, 0.5 Hour
  Radioactivity in tissue: 3154 ng Equivalents test article/g
[1]; Kidney, 1 Hour
  Radioactivity in tissue: 3060 ng Equivalents test article/g
[1]; Kidney, 2 Hours
  Radioactivity in tissue: 2704 ng Equivalents test article/g
[1]; Kidney, 4 Hours
  Radioactivity in tissue: 2075 ng Equivalents test article/g
[1]; Kidney, 8 Hours
  Radioactivity in tissue: 2031 ng Equivalents test article/g
[1]; Kidney, 24 Hours
  Radioactivity in tissue: 1120 ng Equivalents test article/g
[1]; Lacrimal gland (Ex-orbital), 0.5 Hour
  Radioactivity in tissue: BLQ (BLQ: Below limit of quantitation (<320 ng equivalents test article/g).)
[1]; Lacrimal gland (Ex-orbital), 1 Hour
  Radioactivity in tissue: 1557 ng Equivalents test article/g
[1]; Lacrimal gland (Ex-orbital), 2 Hours
  Radioactivity in tissue: 1655 ng Equivalents test article/g
[1]; Lacrimal gland (Ex-orbital), 4 Hours
  Radioactivity in tissue: 1993 ng Equivalents test article/g
[1]; Lacrimal gland (Ex-orbital), 8 Hours
  Radioactivity in tissue: 1388 ng Equivalents test article/g
[1]; Lacrimal gland (Ex-orbital), 24 Hours
  Radioactivity in tissue: BLQ (BLQ: Below limit of quantitation (<320 ng equivalents test article/g).)
[1]; Lacrimal gland (Intra-orbital), 0.5 Hour
  Radioactivity in tissue: BLQ (BLQ: Below limit of quantitation (<320 ng equivalents test article/g).)
[1]; Lacrimal gland (Intra-orbital), 1 Hour
  Radioactivity in tissue: 2323 ng Equivalents test article/g
[1]; Lacrimal gland (Intra-orbital), 2 Hours
  Radioactivity in tissue: 1355 ng Equivalents test article/g
[1]; Lacrimal gland (Intra-orbital), 4 Hours
  Radioactivity in tissue: BLQ (BLQ: Below limit of quantitation (<320 ng equivalents test article/g).)
[1]; Lacrimal gland (Intra-orbital), 8 Hours
  Radioactivity in tissue: BLQ (BLQ: Below limit of quantitation (<320 ng equivalents test article/g).)
[1]; Lacrimal gland (Intra-orbital), 24 Hours
  Radioactivity in tissue: BLQ (BLQ: Below limit of quantitation (<320 ng equivalents test article/g).)
[1]; Large intestinal contents, 0.5 Hour
  Radioactivity in tissue: BLQ (BLQ: Below limit of quantitation (<320 ng equivalents test article/g).)
[1]; Large intestinal contents, 1 Hour
  Radioactivity in tissue: 519 ng Equivalents test article/g
[1]; Large intestinal contents, 4 Hours
  Radioactivity in tissue: 810 ng Equivalents test article/g
[1]; Large intestinal contents, 8 Hours
  Radioactivity in tissue: 593 ng Equivalents test article/g
[1]; Large intestinal contents, 24 Hours
  Radioactivity in tissue: BLQ (BLQ: Below limit of quantitation (<320 ng equivalents test article/g).)
[1]; Large intestine, 0.5 Hour
  Radioactivity in tissue: BLQ (BLQ: Below limit of quantitation (<320 ng equivalents test article/g).)
[1]; Large intestine, 1 Hour
  Radioactivity in tissue: 1787 ng Equivalents test article/g
[1]; Large intestine, 2 Hours
  Radioactivity in tissue: 1716 ng Equivalents test article/g
[1]; Large intestine, 4 Hours
  Radioactivity in tissue: 1361 ng Equivalents test article/g
[1]; Large intestine, 8 Hours
  Radioactivity in tissue: BLQ (BLQ: Below limit of quantitation (<320 ng equivalents test article/g).)
[1]; Large intestine, 24 Hours
  Radioactivity in tissue: BLQ (BLQ: Below limit of quantitation (<320 ng equivalents test article/g).)
[1]; Liver, 0.5 Hour
  Radioactivity in tissue: 2431 ng Equivalents test article/g
[1]; Liver, 1 Hour
  Radioactivity in tissue: 3607 ng Equivalents test article/g
[1]; Liver, 2 Hours
  Radioactivity in tissue: 2005 ng Equivalents test article/g
[1]; Liver, 4 Hours
  Radioactivity in tissue: 1561 ng Equivalents test article/g
[1]; Liver, 8 Hours
  Radioactivity in tissue: 1190 ng Equivalents test article/g
[2]; 30 min, Subject 1001
  Plasma concentration of radioactive material: 2809 ng-equivalents/g
[2]; 1 hr, Subject 1002
  Plasma concentration of radioactive material: 2996 ng-equivalents/g
[2]; 2 hr, Subject 1003
  Plasma concentration of radioactive material: 1466 ng-equivalents/g
[2]; 4 hr, Subject 1004
  Plasma concentration of radioactive material: 1158 ng-equivalents/g
[2]; 8 hr, Subject 1005
  Plasma concentration of radioactive material: 813 ng-equivalents/g
[2]; 24 hr, Subject 1006
  Plasma concentration of radioactive material: 511 ng-equivalents/g
